# Test results published in US7078499B2, “Nucleotide analogues comprising a reporter moiety and a polymerase enzyme blocking moiety” (GE Healthcare UK Limited, priority 2000, dated 2006).
# Assays:
# Format in all cases: biochemical
# Vent™ DNA polymerase = assay: Thermostable DNA polymerase primer extension, Vent; design: key to result of incorporation (termination / further chain extension): T: Incorporation results in termination; E: Incorporation permits further chain extension; T/E: Predominant product is primer extended by one base, but evidence of some further extension also observed; conditions: DNA template, 45° C. for 20–40 minutes; for primer extended by at least one base within assay time (grade): TTP replaced entirely by test compound
# Protocol: (§1) DNA polymerase assays were performed using Sequence 1 as primer and Sequence 2 as template. • Sequence 1 5′[Cy3]TAACTCATTAACAGGATC 3′ • Sequence 2 5′AT TCGCGGTATTCTGGTATGAAGCTTTTAGATCCTGTTAATGAGTTA GTA3′
# (§2) The template (Sequence 2) was designed such that the base (underlined) immediately adjacent to the 3′ end of the hybridised primer is complementary to the nucleotide test compound. Nucleotide test compounds were compounds (6) (4′-C-(glycylaminomethyl)thymidine triphosphate), (8) (4′-C-(N-trifluoroacetyaminomethyl)thymidine triphosphate) and (9) (4′-C-(aminomethyl)thymidine triphosphate) as described above.
# (§3) Primer extension reactions were performed using the above primers in the presence of 40 to 80 μM of nucleotide triphosphates. Positive control reactions contained all four native nucleotide triphosphates. For the other reactions the TTP was replaced with either a 2:1 ratio of […] for the terminator control, or entirely by the test compound The enzymes were used at a final concentration of 0.175 units/μl and a magnesium ion concentration of 2.5 mM in buffers supplied by the manufacturer. The primer and template concentrations were 0.5 pmol/μl and 2 pmol/μl respectively.
# (§4) Extension reactions with thermophilic enzymes were performed by initially denaturing the fully assembled reactions at 70° C. for 5 min. followed by 45° C. for 20–40 minutes. The following enzymes were used: Taq DNA polymerase (Taq); Thermosequenase (TS); Thermosequenase II (TSII); Thermosequenase E (TSE), Tfl DNA polymerase (Tfl); Tth DNA polymerase (Tth), deltaTts DNA polymerase (deltaTts), deltaTts D DNA polymerase (dettaTTSD) (all from APBiotech); Pfu DNA polymerase (Pfu) (Stratagene Ltd); Vent™ DNA polymerase (Vent) (New England Biolabs).
# (§5) The reactions were stopped by adding a 0.5 volume aliquot of 80% formamide containing 0.1% (w/v) bromophenol blue and 0.1% (w/v) cresol blue. The reaction products were separated by denaturing gel electrophoresis at a constant power of 45 W on 16% polyacrylamide gels containing 50% urea.
# (§6) Gels were scanned for Cy3 fluorescence on a Molecular Dynamics Fluorimager and the data analysed using Molecular Dynamics ImageQuant 5 software.
# (§7) The incorporation of a test nucleotide triphosphate results in the appearance on a polyacrylamide gel of a single band corresponding to a single base extension product. If, however, the enzyme adds additional bases then further bands would be observed that corresponded to either the full-length product or positions of other complementary bases in the template.
# [1] = tested on: deltaTts D DNA polymerase; assay: Thermostable DNA polymerase primer extension, delta TTSD; design: key to result of incorporation (termination / further chain extension): T: Incorporation results in termination; E: Incorporation permits further chain extension; T/E: Predominant product is primer extended by one base, but evidence of some further extension also observed; conditions: DNA template, 45° C. for 20–40 minutes; for primer extended by at least one base within assay time (grade): TTP replaced entirely by test compound
# Protocol: as §1, §2, §3, §4, §5, §6, §7
# Thermosequenase II = assay: Thermostable polymerase under reverse transcription conditions, TS II; design: key to result of incorporation (termination / further chain extension): T: Incorporation results in termination; E: Incorporation permits further chain extension; T/E: Predominant product is primer extended by one base, but evidence of some further extension also observed; conditions: RNA template, 2.5 mM Manganese ions; for primer extended by at least one base within assay time (grade): Tth reaction buffer
# Protocol: as §1, §2, §3, §4
# (§8) Reverse transcriptase reactions were performed essentially as described above for thermophilic and mesophilic enzymes. The template for these reactions was the RNA equivalent of sequence 2. All the thermophilic enzymes were assayed in Tth reaction buffer (Cambio Ltd, Cambridge UK) containing 2.5 mM Manganese ions. The following enzymes were used: Thermosequenase (TS1); Thermosequenase II (TSII); delta Tts DNA polymerase (deltaTts); delta Tts D DNA polymerase (deltaTtsD) (all from APBiotech); Retrotherm reverse transcriptase (Retroth) (Cambio Ltd); Tth DNA polymerase (Tth) (Cambio Ltd.).
# as §5, §6, §7
# [2] = tested on: Retrotherm reverse transcriptase; assay: Thermostable polymerase under reverse transcription conditions, Retroth.; design: key to result of incorporation (termination / further chain extension): T: Incorporation results in termination; E: Incorporation permits further chain extension; T/E: Predominant product is primer extended by one base, but evidence of some further extension also observed; key to primer extended by at least one base within assay time (grade): −: No extension within assay time; +/−: up to 25% of primer extended by at least one base within assay time; +: up to 50% of primer extended by at least one base within assay time; ++: up to 75% of primer extended by at least one base within assay time; +++: essentially all primer extended by at least one base within assay time; conditions: RNA template, 2.5 mM Manganese ions; for primer extended by at least one base within assay time (grade): Tth reaction buffer
# Protocol: as §1, §2, §3, §4, §8, §5, §6, §7
# HIV RT = biological target: T1, HIV RT (Human immunodeficiency virus type 1 group M subtype B, UniProt P03366); assay: Mesophilic reverse transcriptase reaction, HIV RT; design: key to result of incorporation (termination / further chain extension): T: Incorporation results in termination; E: Incorporation permits further chain extension; T/E: Predominant product is primer extended by one base, but evidence of some further extension also observed; key to primer extended by at least one base within assay time (grade): −: No extension within assay time; +/−: up to 25% of primer extended by at least one base within assay time; +: up to 50% of primer extended by at least one base within assay time; ++: up to 75% of primer extended by at least one base within assay time; +++: essentially all primer extended by at least one base within assay time; conditions: RNA template, final enzyme concentration of 4 units/μl
# T1 construct: AMV RT; MuLV RT; SAV RT and HIV RT all from APBiotech; purchased APBiotech
# Protocol: as §1, §2, §3
# (§9) Extension reactions preformed with mesophilic polymerases were carried out by mixing all the components of the reaction except the enzyme and heating to 70° C. for 5 min. After the reactions had cooled to room temperature 0.175 units of the enzyme were added and the reactions heated to 37° C. for 20–40 minutes. The following enzymes were used: T7 DNA polymerase (T7); Sequenase 2™ (Seq); Klenow fragment of DNA polymerase 1 (Klen); phi-29 DNA polymerase (Phi-29); T4 DNA polymerase (T4) (all from AP Biotech) and Bst DNA polymerase (Bst) (Cambio Ltd).
# as §8
# (§10) Mesophilic reverse transcriptases (AMV RT; MuLV RT; SAV RT and HIV RT all from APBiotech) were assayed in their respective buffers with a final enzyme concentration of 4 units/μl.
# as §5, §6, §7
# a range of polymerases = assay: DNA polymerase assays (summary); conditions: for further extension after incorporation: reverse transcriptase conditions; for result of incorporation / substrate for polymerases: summary of polymerase assays
# Protocol: as §1, §2, §3, §4, §9, §8, §10, §5, §6, §7
molecule,measurement,setting,value
4′-C-(Glycylaminomethyl)thymidine triphosphate [compound (6)],result of incorporation (termination / further chain extension),Vent™ DNA polymerase,T
same,primer extended by at least one base within assay time (grade),Vent™ DNA polymerase,+/− (up to 25% of primer extended by at least one base within assay time)
same,result of incorporation (termination / further chain extension),[1],T
same,primer extended by at least one base within assay time (grade),[1],++ (up to 75% of primer extended by at least one base within assay time)
same,result of incorporation (termination / further chain extension),Thermosequenase II,E
same,primer extended by at least one base within assay time (grade),Thermosequenase II,+ (up to 50% of primer extended by at least one base within assay time)
same,result of incorporation (termination / further chain extension),[2],E
same,primer extended by at least one base within assay time (grade),[2],++ (up to 75% of primer extended by at least one base within assay time)
same,primer extended by at least one base within assay time (grade),HIV RT,+++
same,result of incorporation (termination / further chain extension),HIV RT,E
same,further extension after incorporation,a range of polymerases,some extension was observed
same,result of incorporation,a range of polymerases,termination
same,substrate for polymerases,a range of polymerases,effective substrates
"Cc1cn([C@H]2C[C@H](O)[C@@](CNC(=O)C(F)(F)F)(COP(=O)(O)OP(=O)(O)OP(=O)(O)O)O2)c(=O)[nH]c1=O [compound (8), 4′-C-(N-trifluoroacetylaminomethyl)thymidine triphosphate]",result of incorporation (termination / further chain extension),Vent™ DNA polymerase,T
same,primer extended by at least one base within assay time (grade),Vent™ DNA polymerase,+/− (up to 25% of primer extended by at least one base within assay time)
same,result of incorporation (termination / further chain extension),[1],T/E
same,primer extended by at least one base within assay time (grade),[1],++ (up to 75% of primer extended by at least one base within assay time)
same,result of incorporation (termination / further chain extension),Thermosequenase II,E
same,primer extended by at least one base within assay time (grade),Thermosequenase II,+ (up to 50% of primer extended by at least one base within assay time)
same,result of incorporation (termination / further chain extension),[2],E
same,primer extended by at least one base within assay time (grade),[2],++ (up to 75% of primer extended by at least one base within assay time)
same,primer extended by at least one base within assay time (grade),HIV RT,+++
same,result of incorporation (termination / further chain extension),HIV RT,E
same,further extension after incorporation,a range of polymerases,some extension was observed
same,result of incorporation,a range of polymerases,termination
same,substrate for polymerases,a range of polymerases,effective substrates
4′-C-(Aminomethyl)thymidine triphosphate [compound (9)],result of incorporation (termination / further chain extension),Vent™ DNA polymerase,T
same,primer extended by at least one base within assay time (grade),Vent™ DNA polymerase,+/− (up to 25% of primer extended by at least one base within assay time)
same,result of incorporation (termination / further chain extension),[1],T/E
same,primer extended by at least one base within assay time (grade),[1],++ (up to 75% of primer extended by at least one base within assay time)
same,result of incorporation (termination / further chain extension),Thermosequenase II,E
same,primer extended by at least one base within assay time (grade),Thermosequenase II,++ (up to 75% of primer extended by at least one base within assay time)
same,result of incorporation (termination / further chain extension),[2],E
same,primer extended by at least one base within assay time (grade),[2],+++
same,primer extended by at least one base within assay time (grade),HIV RT,+++
same,result of incorporation (termination / further chain extension),HIV RT,E
same,further extension after incorporation,a range of polymerases,some extension was observed
same,result of incorporation,a range of polymerases,termination
same,substrate for polymerases,a range of polymerases,effective substrates
